Some test systems named below: A498; A549; CAKI-1; CCRF-CEM; DU-145; EKVX; HCT-15; HOP-62; IGROV-1; K562; MCF7; MDA-MB-231; MDA-N; Malme-3M; NCI-H226; NCI-H23; OVCAR-3; SK-MEL-28; SNB-19; ACHN.
Assay in all cases: NCI tumour cell line growth inhibition, 48 h

Each structure is given as a SMILES string.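 Five compound concentrations were applied to cells in 96-well plates for 48 hours; endpoints were derived by simple linear interpolation of the resulting dose-response curve. GI50: concentration for 50% inhibition of growth.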 Calls of active or inactive are those of the source. No stated cut-off is given here; in the data, active = GI50 up to about 1.1 µM and inactive = higher. Some results are limits rather than exact numbers.

`N#Cc1c(-c2ccc(Cl)cc2)c2c([nH]c1=O)-c1ccccc1SC2`: the GI50 is > 100 µM (inactive) in the assay on A498; 30.3 µM (inactive) in the assay with A549; 47.2 µM (inactive) in the assay on CAKI-1; 26.3 µM (inactive) in the assay with CCRF-CEM; > 100 µM (inactive) in the assay with DU-145; 21.1 µM (inactive) in the assay with EKVX. The GI50 in the assay on HCT-15 is 70.6 µM; in the assay with HOP-62, 32.1 µM (inactive); with IGROV-1 it was 56.9 µM (inactive); with K562, 32.9 µM (inactive); in the assay with MCF7, 27.5 µM (inactive); in the assay with MDA-MB-231 it was 29.1 µM (inactive). The GI50 was 77.6 µM (inactive) in the assay on MDA-N; 33.1 µM (inactive) in the assay on Malme-3M; 38.6 µM (inactive) with NCI-H226; 93.3 µM (inactive) with NCI-H23; 26.2 µM (inactive) with OVCAR-3; > 100 µM (inactive) in the assay on SK-MEL-28. In addition, the GI50 with SNB-19 is 91.8 µM (inactive).
Regarding `NNC(=O)c1ccc[n+](CCc2ccccc2)c1`, the GI50 with A498, in the assay on A549, in the assay on ACHN, in the assay with CAKI-1, in the assay on DU-145 and with EKVX was > 100 µM (inactive) in each case. Further, the GI50 is greater than 100 µM in the assay on HCT-15; > 100 µM (inactive) in the assay with HOP-62; > 100 µM (inactive) with IGROV-1; > 100 µM (inactive) in the assay on K562; > 100 µM (inactive) in the assay with MCF7; > 100 µM (inactive) with MDA-MB-231. Also, the GI50 in the assay on MDA-N, in the assay with Malme-3M, in the assay with NCI-H226, with NCI-H23, in the assay with OVCAR-3 and with SK-MEL-28 was > 100 µM (inactive) in each case. Further, the GI50 with SNB-19 is > 100 µM (inactive).
Regarding `C[C@H](c1ccccc1)N1C(=O)[C@@H](O)[C@H]1[C@H](CO)OCc1ccccc1`, the GI50 with A498 was 20 µM (inactive); with A549 it was > 100 µM (inactive); with ACHN, > 100 µM (inactive); in the assay on CCRF-CEM, > 100 µM (inactive); in the assay on DU-145, > 100 µM (inactive); with EKVX, > 100 µM (inactive). Also, the GI50 with HCT-15 was greater than 100 µM; in the assay on HOP-62, > 100 µM (inactive); with IGROV-1, > 100 µM (inactive); in the assay with K562, > 100 µM (inactive); with MCF7, > 100 µM (inactive); in the assay on MDA-MB-231 it was > 100 µM (inactive). Also, the GI50 in the assay on MDA-N, in the assay with Malme-3M, in the assay with NCI-H226, in the assay with NCI-H23, with OVCAR-3 and in the assay with SK-MEL-28 was > 100 µM (inactive) in each case. Besides, in the assay on SNB-19, the GI50 was > 100 µM (inactive).
Take `C[C@H]1C[C@H](C)c2ccccc2N(C)/C1=N\c1ccccc1`: the GI50 in the assay with A498 was 25.2 µM (inactive); in the assay with A549 it was 34.7 µM (inactive); in the assay with ACHN it was 34.4 µM (inactive); with CAKI-1 it was 63.1 µM (inactive); in the assay with DU-145 it was 92 µM (inactive); in the assay with EKVX, 25.5 µM (inactive). For the same compound, the GI50 in the assay with HCT-15 is 37.2 µM; in the assay with HOP-62, 19.3 µM (inactive); in the assay with IGROV-1, 21.9 µM (inactive); in the assay on K562, 66.7 µM (inactive); with MCF7 it was 25.1 µM (inactive); with MDA-MB-231, 14.8 µM (inactive). Also, the GI50 is 23.4 µM (inactive) with MDA-N; 22.6 µM (inactive) in the assay with Malme-3M; 24.5 µM (inactive) in the assay with NCI-H226; 20.4 µM (inactive) in the assay on NCI-H23; 28.1 µM (inactive) in the assay with OVCAR-3; 28.1 µM (inactive) in the assay with SK-MEL-28. Besides, in the assay with SNB-19, the GI50 was 37.8 µM (inactive).
As to `CC(C)(C)C1CCC2c3c([nH]c4ccccc34)C3C(=O)N(c4cc(Br)cc(Br)c4)C(=O)C3C2C1` (stereo not drawn), the GI50 is 19.7 µM (inactive) in the assay with A498; 14.8 µM (inactive) with A549; 20 µM (inactive) in the assay with ACHN; 13.7 µM (inactive) in the assay with CAKI-1; 5.79 µM (inactive) in the assay on CCRF-CEM; 21.4 µM (inactive) in the assay with DU-145. The GI50 is 6.58 µM (inactive) with EKVX; 25.4 µM in the assay on HCT-15; 18.7 µM (inactive) in the assay with HOP-62; 70.3 µM (inactive) in the assay with IGROV-1; 3.2 µM (inactive) in the assay on MCF7; 27 µM (inactive) in the assay on MDA-MB-231. Moreover, the GI50 in the assay on MDA-N is 31.9 µM (inactive); in the assay on Malme-3M, 57.9 µM (inactive); in the assay with NCI-H226, 21.9 µM (inactive); in the assay with NCI-H23 it was 15.9 µM (inactive); with OVCAR-3, > 10 µM (inactive); in the assay on SK-MEL-28, 13.2 µM (inactive).
As for `COC(=O)C(Cc1c[nH]c2ccccc12)NP(=O)(O)OCC1OC(n2cc(Br)c(=O)[nH]c2=O)CC1O` (stereo not drawn), the GI50 with A498, in the assay with A549, in the assay on ACHN, in the assay with CCRF-CEM, in the assay with DU-145 and in the assay with EKVX was > 100 µM (inactive) each time. The GI50 was greater than 100 µM in the assay on HCT-15; > 100 µM (inactive) in the assay on HOP-62; > 100 µM (inactive) in the assay with IGROV-1; > 100 µM (inactive) with K562; > 100 µM (inactive) in the assay on MCF7; > 100 µM (inactive) in the assay with MDA-MB-231. The GI50 in the assay with MDA-N, in the assay on Malme-3M, in the assay with NCI-H226, in the assay with NCI-H23, with OVCAR-3 and in the assay with SK-MEL-28 was > 100 µM (inactive) each time. For the same compound, the GI50 in the assay with SNB-19 is > 100 µM (inactive).
Consider `Cc1ccc(N2C(N)=C(C#N)C(C#N)(C#N)C2c2ccccc2)cc1` (stereo not drawn), for which the GI50 is 17 µM (inactive) in the assay with A498; 16.6 µM (inactive) in the assay on A549; 14.2 µM (inactive) with ACHN; 8.97 µM (inactive) with CAKI-1; 3 µM (inactive) with CCRF-CEM; 14.9 µM (inactive) in the assay with DU-145. The GI50 in the assay with EKVX was 18 µM (inactive); with HCT-15, 6.71 µM; in the assay with HOP-62 it was 19.5 µM (inactive); with IGROV-1 it was 6.67 µM (inactive); with MCF7 it was 4.95 µM (inactive); in the assay on MDA-MB-231, 11.5 µM (inactive). The GI50 was 3.08 µM (inactive) with MDA-N; 11.5 µM (inactive) with Malme-3M; 19.5 µM (inactive) with NCI-H226; 18.1 µM (inactive) in the assay on NCI-H23; 13.7 µM (inactive) with OVCAR-3; 10.1 µM (inactive) in the assay on SK-MEL-28. Besides, the GI50 in the assay on SNB-19 is 17.5 µM (inactive).
Take `Nc1ccc2c3c1cccc3c(=O)n1c3ccc(Cc4ccc5c(c4)nc4c6ccc(N)c7cccc(c(=O)n54)c76)cc3nc21`: the GI50 in the assay with A498, in the assay on A549, with ACHN, in the assay with CAKI-1, with CCRF-CEM and with DU-145 was > 100 µM (inactive) in each case. In addition, the GI50 with EKVX, in the assay on HOP-62, with IGROV-1, in the assay on K562, with MCF7 and in the assay with MDA-MB-231 was > 100 µM (inactive) throughout. Besides, the GI50 with MDA-N, in the assay with Malme-3M, in the assay with NCI-H226, with NCI-H23, with OVCAR-3 and in the assay with SK-MEL-28 was > 100 µM (inactive) throughout. Moreover, the GI50 with SNB-19 was > 100 µM (inactive).
`O=C1C(=c2cc3c(c4ccccc24)=NC24CCCCC2C(c2ccccc2)C=C(c2ccccc2)N34)C(=O)c2ccccc21` (stereo not drawn): the GI50 in the assay on A498 is > 100 µM (inactive); in the assay with A549, 41 µM (inactive); in the assay on ACHN it was 54.3 µM (inactive); in the assay with CAKI-1, 53 µM (inactive); with CCRF-CEM, 15.6 µM (inactive); in the assay with DU-145 it was 57.3 µM (inactive). Besides, the GI50 is 12.7 µM (inactive) in the assay with EKVX; 74 µM (inactive) with HOP-62; 3.08 µM (inactive) in the assay with IGROV-1; 23 µM (inactive) with K562; 14.4 µM (inactive) in the assay on MCF7; 15.4 µM (inactive) in the assay on MDA-MB-231. Moreover, the GI50 in the assay on MDA-N was 36.9 µM (inactive); in the assay on Malme-3M, 45.1 µM (inactive); in the assay with NCI-H226 it was 44.3 µM (inactive); in the assay with OVCAR-3, 22 µM (inactive); with SK-MEL-28, 47.2 µM (inactive); with SNB-19 it was 45.2 µM (inactive).
In the case of `CCOC(=O)c1cc2c3c(cc(OC)c2[nH]1)N(C(=O)OCC)CC3`, the GI50 is > 100 µM (inactive) in the assay with A498; > 100 µM (inactive) in the assay on A549; > 100 µM (inactive) in the assay on CAKI-1; > 100 µM (inactive) in the assay with CCRF-CEM; > 100 µM (inactive) with DU-145; 42.5 µM (inactive) in the assay with EKVX. Also, the GI50 with HCT-15 was greater than 100 µM; in the assay on HOP-62, > 100 µM (inactive); in the assay with IGROV-1 it was > 100 µM (inactive); with K562 it was > 100 µM (inactive); in the assay with MCF7, > 100 µM (inactive); in the assay on MDA-MB-231, > 100 µM (inactive). The GI50 in the assay on MDA-N, in the assay with Malme-3M, with NCI-H226, with NCI-H23, with OVCAR-3 and in the assay with SK-MEL-28 was > 100 µM (inactive) each time. Moreover, the GI50 with SNB-19 was > 100 µM (inactive).

For the origin of these results see ChEMBL document CHEMBL1201862, “PubChem BioAssay data set” (2004).
